Reference: the NIST ThermoML archive (doi:10.1016/j.jct.2012.09.028)

Details: 101.33 kPa, Crystal, Vacuum adiabatic calorimetry

O=C[C@H](O)[C@@H](O)[C@H](O)CO [D-xylose]
Details	molar entropy [J/K/mol]
0.5 K	0.0002783
1 K	0.0007579
1.5 K	0.001652
2 K	0.003197
2.5 K	0.005661
3 K	0.009356
3.5 K	0.01464
4 K	0.02194
4.5 K	0.0317
5 K	0.04448
5.5 K	0.06082
6 K	0.08137
6.5 K	0.1068
7 K	0.1377
7.5 K	0.1749
8 K	0.219
8.5 K	0.2706
9 K	0.3303
9.5 K	0.3987
10 K	0.4763
11 K	0.6598
12 K	0.8803
13 K	1.138
14 K	1.432
15 K	1.761
16 K	2.122
17 K	2.515
18 K	2.935
19 K	3.383
20 K	3.854
25 K	6.505
30 K	9.489
35 K	12.65
40 K	15.88
45 K	19.14
50 K	22.41
55 K	25.66
60 K	28.89
65 K	32.12
70 K	35.35
75 K	38.56
80 K	41.77
85 K	44.96
90 K	48.15
95 K	51.33
100 K	54.5
110 K	60.81
120 K	67.1
130 K	73.34
140 K	79.56
150 K	85.75
160 K	91.91
170 K	98.05
180 K	104.16
190 K	110.25
200 K	116.32
210 K	122.38
220 K	128.42
230 K	134.45
240 K	140.47
250 K	146.47
260 K	152.47
270 K	158.46
273.15 K	160.35
280 K	164.44
290 K	170.42
298.15 K	175.29
300 K	176.4
